Measurements reported in patent US20230065158A1, “OXABICYCLOHEPTANES FOR TREATMENT OF SMALL CELL LUNG CANCER” (Lixte Biotechnology, Inc., priority 2021, published 2023).

Tests used:
H69 cells = assay: BiOLOG Phenotype Microarray carbon substrate utilization; format: cell-based; conditions: LB100 20 μM overnight
Excerpt: FIGS. 4A-4F depict a reactome pathway analysis of PamGene PTKs and STKs after LB-100 treatment of H524 cells and Biolog phenotype MicroArray. […] Table includes 10 carbon sources affected by LB-100 (n=3). […] P<0.001 (***) for control (untreated cells) vs. LB-100. FIG. 4D: Amplex Red Glucose/Oxidase assay kit was used to measure glucose level in cell culture media. […] Glucose concentration detected in initial medium and counted as 100%. Subtracting final medium level of glucose from initial glucose medium concentration yielded % glucose in the medium with cells (n=3). Effect of LB-100 on MET phosphorylation. FIG. 4E: H524 and H69 cells were treated overnight with LB-100 (H524—5 μM and H69—20 μM) following by stimulation with 100 ng/ml HGF in 10 min. Cells were collected and lysed for WB analysis with pMET and total MET antibody. Pan-actin was used as loading control (n=3). FIG. 4F: H524 cell lysates (control, LB-100, carboplatin and combination (LB-100/carboplatin) were analyzed by western blots to check phosphorylation status of MET at Ser985 and Tyr1234/1235. Actin was used as a loading control (n=3). […]
Phenotype Microarrays (PMs) use a patented redox chemistry, employing cell respiration as a universal reporter. […] The redox assay provides for both amplification and precise quantitation of phenotypes. […]

PP2A = molecular target: T1, PP2A (Homo sapiens, UniProt P67775); assay: PP2A immunoprecipitation Ser/Thr phosphatase activity assay in treated H524 cells; format: cell-based; conditions: LB-100 5 μM, 24 h, H524 cells
T1 construct: endogenous in cells; host or cells: H524 (human SCLC) cells
Method: FIGS. 1A-IL depict the effects of LB-100 on PP2A-A expression in SCLC tumors and cells. […] A Mann-Whitney U test was used for comparison between the normal and SCLC samples. FIG. 1B: IHC for PP2A was conducted on TMA tissue sections and images were captured at 4× or 20× using a 3D-Histech PANNORAMIC SCAN whole slide scanner (3D-Histech, Budapest, Hungary). […] TMAs were scored in normal (n=24) and tumor (n=79) cores on a scale from 0 (no staining/no protein expression) to 3+(strong staining/high protein expression). FIG. 1C: Summary bar graph of the average PP2A subunit staining. IHC staining intensity of normal and tumor cores. There was a statistically significant difference between normal and tumor tissue (p<0.001). FIG. 1D: In order to compare the expression of PP2A subunits A and C, cell lysates from seven SCLC cell lines and HBEC 3KT (non-malignant cell line) were subjected to western blotting. FIG. 1E: PP2A activity was determined using a serine/threonine phosphatase activity assay (Millipore) after 24 h exposure to cantharidin (10 μM) and LB-100 (5 μM). […] LB-100 alone or in combination with carboplatin inhibited proliferation and colony formation in SCLC cells. The Cell Counting Kit-8 assay detected cell H524 and H69 cell viability. […] FIGS. 1I-1K: Graphs depict the mean+SEM of percent viability for cells (n=3). […]

T1 sequence (P67775 whole entry): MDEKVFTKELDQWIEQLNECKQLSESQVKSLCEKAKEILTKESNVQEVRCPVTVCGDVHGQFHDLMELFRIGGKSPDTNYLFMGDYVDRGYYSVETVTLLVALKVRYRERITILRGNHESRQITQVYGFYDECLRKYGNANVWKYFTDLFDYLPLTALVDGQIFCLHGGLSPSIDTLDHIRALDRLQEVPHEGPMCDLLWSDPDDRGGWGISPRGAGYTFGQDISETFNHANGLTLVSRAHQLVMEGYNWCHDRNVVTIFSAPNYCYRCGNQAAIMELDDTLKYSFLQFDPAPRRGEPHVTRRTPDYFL
T1 sequence (P30153 whole entry partner): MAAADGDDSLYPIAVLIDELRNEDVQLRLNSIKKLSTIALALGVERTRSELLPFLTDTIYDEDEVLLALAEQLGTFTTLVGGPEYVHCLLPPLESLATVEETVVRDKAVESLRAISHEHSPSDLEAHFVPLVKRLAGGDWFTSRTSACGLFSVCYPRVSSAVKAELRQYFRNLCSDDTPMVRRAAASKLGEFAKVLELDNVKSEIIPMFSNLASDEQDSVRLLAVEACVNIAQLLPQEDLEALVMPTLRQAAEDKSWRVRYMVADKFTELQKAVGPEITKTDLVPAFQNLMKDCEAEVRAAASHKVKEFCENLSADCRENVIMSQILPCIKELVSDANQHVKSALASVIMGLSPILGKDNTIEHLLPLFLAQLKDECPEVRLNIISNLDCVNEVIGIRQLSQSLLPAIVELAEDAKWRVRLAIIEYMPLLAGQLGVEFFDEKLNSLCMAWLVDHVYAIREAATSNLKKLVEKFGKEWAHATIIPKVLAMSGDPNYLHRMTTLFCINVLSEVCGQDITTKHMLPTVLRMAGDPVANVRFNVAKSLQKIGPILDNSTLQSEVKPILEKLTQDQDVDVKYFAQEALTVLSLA

C[NH+]1CCN(C(=O)C2C(C(=O)O)[C@H]3CC[C@@H]2O3)CC1 (stereo in doubt) [LB-100, 3-[(4-Methylpiperazin-1-yl)carbonyl]-7-oxabicyclo[2.2.1]heptane-2-carboxylic acid]
reduction of glycogen consumption (H69 cells): more than 2.7 fold | reduction of α-D-Glucose consumption (H69 cells): more than 6 fold | phosphatase activity inhibited to (PP2A): 65%
